Test results taken from PMC4604124, “In Vitro Characterization of the Pharmacological Properties of the Anti-Cancer Chelator, Bp4eT, and Its Phase I Metabolites” (PLoS ONE, 2015).
Where “and” joins values, the source holds several entries; their conditions need not be identical. Equal values may be shown once.

Key:
[1] = test system: labile iron pool of MCF-7 cells; assay: Calcein-AM assay, access to the labile iron pool; type: cell-based, human; design: Calcein fluorescence: unit not given here; conditions: 10 μM
Protocol: These experiments were performed according to Glickstein et al. with slight modifications. The MCF-7 cells were seeded in 96-well plates (10,000 cells/well) and allowed to adhere for 24 h/37°C. Cells were loaded with iron using the cellular iron donor, ferric ammonium citrate (530 μg/mL), 24 h prior to the experiment, and then washed. To prevent potential interference, especially with regard to various trace elements, the medium was replaced with ADS buffer (prepared using Millipore water supplemented with 116 mM NaCl, 5.3 mM KCl, 1 mM CaCl2, 1.2 mM MgSO4, 1.13 mM NaH2PO4, 5 mM D-glucose, and 20 mM HEPES, pH 7.4). Cells were then loaded with 2 μM of the cell-permeable calcein green acetoxymethyl ester (calcein-AM; Molecular Probes, Oregon, USA) for 30 min/37°C and washed. Cellular esterases cleave the acetoxymethyl groups to form the cell membrane-impermeable compound, calcein green. The fluorescence of calcein green is quenched upon binding iron. The intracellular fluorescence (λex = 488 nm; λem = 530 nm) of calcein green was then followed as a function of time (10 min after the addition of 10 μM Bp4eT or its metabolites) at 37°C using the Tecan Infinite 200M plate reader. The iron chelation efficacy of the metabolites in cells was expressed as a percentage of the efficacy of the parent chelator, Bp4eT (100%).

MCF-7 cells = assay: Cell cycle analysis by flow cytometry (propidium iodide); type: cell-based, human; conditions: 0.1 μM, 72 h
Protocol: To examine the effect of the agents on the cell cycle, MCF-7 cells were seeded in 60 mm Petri dishes at a density of 240,000 cells/dish and incubated with Bp4eT or its metabolites for 72 h/37°C. The cells were then harvested, fixed by ethanol and stained by propidium iodide (Molecular Probes, Eugene, OR, USA) for 30 min/37°C, as described previously. Cells were analyzed using Accuri C6 flow cytometer (Becton Dickinson and Company, San Jose, CA USA). Propidium iodide was excited at λex = 488 nm and fluorescence analyzed at λem = 585 nm (FL-2) with a total of 10,000 events collected per analysis.
(§1) SigmaStat for Windows 3.5 (Systat Software, San Jose, CA, USA) statistical software package was utilized to analyze results. The data are expressed as the mean ± SD of a given number of experiments. Statistical significance was determined using a one-way ANOVA with a Bonferroni post-hoc test or Student’s t-test. The results were considered to be statistically significant when p < 0.05. The IC50 values were calculated using CalcuSyn 2.0 software (Biosoft, Cambridge, UK). Cell cycle analysis was evaluated using MultiCycle AV Software (Phoenix Flow Systems, San Diego, CA, USA).

caspase 8 = assay: Caspase activity, luminescent kit, caspase 8; type: cell-based, human; conditions: for Caspase 8 activity, % of the control: 100 nM, MCF-7, corrected for viability; for kaspáza 8, průměry (means of raw signal): mean of 4 experiments; for kaspáza 8, raw signal / kaspáza 8, signal / viabilita: individual experiments by date
Protocol: To assess the effect of the compounds on caspase activity, MCF-7 cells were incubated with 100 nM Bp4eT or its metabolites for 3, 24 or 72 h/37°C in 96-well plates, as described above. The cells were then lysed by adding 100 μL of cold lysis buffer (100 mM HEPES, 10 mM CHAPS, 10 mM D-L-dithiothreitol, pH 7.4) to 100 μL of medium in each well. Lysates were immediately frozen at -80°C. Thawed lysates were used to assess caspase activity using luminescent kits for caspases 3/7, 8 and 9 (Promega, Madison, WI, USA). The luminescence was measured using the Tecan Infinite 200M plate reader. Caspase activity in the experimental groups was corrected according to the cellular viability of each group and expressed as a percentage of activity of the untreated control (100%).

[2] = test system: HCT116 human colorectal carcinoma cells; assay: MTT cytotoxicity assay, HCT116 cells; type: cell-based; conditions: for IC50: MTT
Protocol: For cytotoxicity experiments, cancer cells were seeded at a density of 5,000 (MCF-7), 10,000 (HL-60) or 2,000 cells/well (HCT116 and A549) in 96-well plates (TPP) for 24 h/37°C prior to the addition of examined agents. The non-cancerous cells, 3T3 and H9c2 cells, were cultured for 24 h/37°C in 96-well plates at a density of 10,000 cells/well, the medium was then changed to serum- and pyruvate-free DMEM (Sigma-Aldrich) and incubated with the cells for another 24 h/37°C. The cytotoxic effects of Bp4eT and its metabolites were studied at different concentrations after a 72 h/37°C incubation. In order to aid the dissolution of the lipophilic ligands, 0.1% dimethyl sulfoxide (v/v) (DMSO; Sigma-Aldrich) was present in the culture medium of all groups. At this concentration, DMSO had no effect on cellular proliferation or viability.
The viability of cells were determined using an MTT assay (Sigma-Aldrich) according to previously established methods. The optical density of soluble MTT was measured at λ = 570 nm, subtracting the λ = 690 nm background using a Tecan Infinite 200M plate reader (Tecan Group, Männedorf, Switzerland). The viability or proliferation of experimental groups was expressed as a percentage of the untreated controls (100%).
as §1

SMILES: CCNC(=S)NN=C(c1ccccc1)c1ccccn1 [Bp4eT, 2-benzoylpyridine 4-ethyl-3-thiosemicarbazone]
- Calcein fluorescence ([1]; 30 sec, mean (průměr)): 27.822
- Calcein fluorescence ([1]; 60 sec, mean (průměr)): 40.360
- Calcein fluorescence ([1]; 90 sec, mean (průměr)): 65.393
- Calcein fluorescence ([1]; 120 sec, mean (průměr)): 66.572
- Calcein fluorescence ([1]; 300 sec, mean (průměr)): 146.135
- Calcein fluorescence ([1]; 300 sec, single experiments): 168.950 and 158.308 and 180.958 and 116.900 and 150.183 and 101.508
- Calcein fluorescence ([1]; 600 sec, mean (průměr)): 220.551
- Calcein fluorescence ([1]; 600 sec, single experiments): 239.975 and 219.283 and 288.833 and 220.450 and 195.583 and 159.183
- Chelation efficacy: fluorescence of free calcein at t = 600 s as percentage of Bp4eT ([1]; MCF-7, mean of 6 experiments): 100%
- Fluorescence of free calcein at 600 s as percentage of Bp4eT ([1]; MCF-7, single experiments): 108.807% and 99.4251% and 130.96% and 99.954% and 88.6793% and 72.1752%
- G1 phase of the cell cycle (MCF-7 cells): not significantly (p > 0.05) different from the control
- Percentage of cells in the S phase (MCF-7 cells; control 15%): 35%
- Percentage of cells in the G2/M phase (MCF-7 cells; control 33%): 12%
- Caspase 8 activity, % of the control (caspase 8; 24 h): 125%
- Caspase 8 activity, % of the control (caspase 8; 72 h): 189%
- kaspáza 8, % kontroly (caspase 8; 3 hodiny (3 h), % of control): 95.86%
- kaspáza 8, průměry (means of raw signal) (caspase 8; 3 hodiny (3 h)): 1343.75
- kaspáza 8, raw signal (caspase 8; 3 hodiny): 2059 and 1157 and 1253.5 and 905.5
- kaspáza 8, raw signal, průměry (caspase 8; 3 hodiny, mean): 1343.75
- kaspáza 8, % kontroly (caspase 8; 3 hodiny, mean, normalised to viability): 100.78 % kontroly
- kaspáza 8, signal / viabilita (caspase 8; 3 hodiny, normalised to viability): 21.3728 and 12.0099 and 13.0116 and 9.399
- kaspáza 8, signal / viabilita, průměry (caspase 8; 3 hodiny, normalised to viability, mean): 13.9484
- kaspáza 8, % kontroly (caspase 8; 24 hodin (24 h), % of control): 66.28%
- kaspáza 8, průměry (means of raw signal) (caspase 8; 24 hodin (24 h)): 1049.5
- kaspáza 8, raw signal (caspase 8; 24 hodin): 1182.5 and 845.5 and 1242.5 and 927.5
- kaspáza 8, raw signal, průměry (caspase 8; 24 hodin, mean): 1049.5
- kaspáza 8, % kontroly (caspase 8; 24 hodin, mean, normalised to viability): 125.02 % kontroly
- kaspáza 8, signal / viabilita (caspase 8; 24 hodin, normalised to viability): 22.3747 and 15.9981 and 23.51 and 17.5497
- kaspáza 8, signal / viabilita, průměry (caspase 8; 24 hodin, normalised to viability, mean): 19.8581
- kaspáza 8, % kontroly (caspase 8; 72 hodin (72 h), % of control): 50.72%
- kaspáza 8, průměry (means of raw signal) (caspase 8; 72 hodin (72 h)): 3576.88
- kaspáza 8, raw signal (caspase 8; 72 hodin): 5283 and 3499.5 and 2666 and 2859
- kaspáza 8, raw signal, průměry (caspase 8; 72 hodin, mean): 3576.88
- kaspáza 8, % kontroly (caspase 8; 72 hodin, mean, normalised to viability): 188.91 % kontroly
- kaspáza 8, signal / viabilita (caspase 8; 72 hodin, normalised to viability): 195.017 and 129.181 and 98.4127 and 105.537
- kaspáza 8, signal / viabilita, průměry (caspase 8; 72 hodin, normalised to viability, mean): 132.037
- Therapeutic index, IC50 non-cancerous cells / IC50 neoplastic cells ([2]; 3T3/HCT116): 163.6
- Therapeutic index, IC50 non-cancerous cells / IC50 neoplastic cells ([2]; H9c2/HCT116): 65.5
- MTT, relative to control (0 = 100) ([2]; HCT116, 2 000 b/j, 0.1 nM, průměr (mean)): 92.91
- MTT, relative to control (0 = 100) ([2]; HCT116, 2 000 b/j, 0.1 nM, single experiment (date)): 94.5188 and 92.721 and 92.454 and 82.0932 and 102.751
- MTT, relative to control (0 = 100) ([2]; HCT116, 2 000 b/j, 0.3 nM, průměr (mean)): 88.66
- MTT, relative to control (0 = 100) ([2]; HCT116, 2 000 b/j, 0.3 nM, single experiment (date)): 92.7269 and 86.3547 and 90.8174 and 78.0265 and 95.3944
- MTT, relative to control (0 = 100) ([2]; HCT116, 2 000 b/j, 1 nM, průměr (mean)): 85.74
- MTT, relative to control (0 = 100) ([2]; HCT116, 2 000 b/j, 1 nM, single experiment (date)): 90.3279 and 80.727 and 89.5958 and 78.1202 and 89.9198
- MTT, relative to control (0 = 100) ([2]; HCT116, 2 000 b/j, 3 nM, průměr (mean)): 82.64
- MTT, relative to control (0 = 100) ([2]; HCT116, 2 000 b/j, 3 nM, single experiment (date)): 85.5357 and 81.1307 and 88.4648 and 76.4907 and 81.5651
- MTT, relative to control (0 = 100) ([2]; HCT116, 2 000 b/j, 10 nM, průměr (mean)): 43.25
- MTT, relative to control (0 = 100) ([2]; HCT116, 2 000 b/j, 10 nM, single experiment (date)): 46.7731 and 45.9842 and 47.2591 and 32.9751
- MTT, relative to control (0 = 100) ([2]; HCT116, 2 000 b/j, 30 nM, průměr (mean)): 5.63
- MTT, relative to control (0 = 100) ([2]; HCT116, 2 000 b/j, 100 nM, průměr (mean)): 2.50
- IC50 ([2]; HCT116, 2 000 b/j, single experiment (date)): 7.8 nM and 8.77 nM and 5.93 nM
- IC50 ([2]; Homo sapiens, HCT-116, 72 h, HCT116, 72 h/37°C, mean ± SD, n ≥ 4): 8 ± 1 nM
- IC50 ([2]; Homo sapiens, HCT-116, HCT116, 2 000 b/j, průměr (mean)): 7.6 nM
- IC50 ([2]; Homo sapiens, HCT-116, HCT116, 2 000 b/j, single experiment (date)): 7.89 nM
